# Data taken from patent US12187709B2 (Genentech, Inc., priority 2021, dated 2025).
# Assays:
# [1] = target: Human Cbl-b (residues 40-426) (Homo sapiens (Human), UniProt Q13191); assay: Cbl-b SPR assay; format: binding; conditions: for Fold of selectivity: C-cbl SPR Kd vs Cbl-b SPR Kd; for Kd: SPR, 20° C.
# In short: (§1)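 Values derive from a 1:1 model fitted to multicycle kinetics on captured protein (1300-1500 RU), using six 2-fold concentrations, 60 s contact and dissociation of 120-1200 s. In the chaser format, kd comes from a single-exponential fit of % site occupancy over time.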
# c-Cbl (residues 47-435) = c-Cbl (residues 47-435) (Homo sapiens (Human), UniProt P22681); assay: c-Cbl SPR assay; format: binding; conditions: 20° C.
# In short: as §1
# c-Cbl = c-Cbl (Homo sapiens (Human), UniProt P22681); assay: C-Cbl LCK Ub TR-FRET assay (C-cbl Lck HTRF); format: biochemical
# In short: (§2)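 After the ubiquitination reaction, detection mixture was added and plates incubated 20 min at room temperature before reading. IC50 values were calculated with wells lacking LCK as the low control and DMSO as the high control.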
# Cbl-b = Cbl-b (Homo sapiens (Human), UniProt Q13191); assay: Cbl-b LCK Ub TR-FRET assay (Cbl-b Lck HTRF); format: biochemical; conditions: for IC50: Cbl-b LCK Ub TR-FRET, Example 121; for (fold-selectivity) Cbl-b and C-Cbl Selectivity: ratio C-cbl Lck HTRF IC50 / Cbl-b Lck HTRF IC50
# In short: as §2
# Chain of c-Cbl (P22681 47-435): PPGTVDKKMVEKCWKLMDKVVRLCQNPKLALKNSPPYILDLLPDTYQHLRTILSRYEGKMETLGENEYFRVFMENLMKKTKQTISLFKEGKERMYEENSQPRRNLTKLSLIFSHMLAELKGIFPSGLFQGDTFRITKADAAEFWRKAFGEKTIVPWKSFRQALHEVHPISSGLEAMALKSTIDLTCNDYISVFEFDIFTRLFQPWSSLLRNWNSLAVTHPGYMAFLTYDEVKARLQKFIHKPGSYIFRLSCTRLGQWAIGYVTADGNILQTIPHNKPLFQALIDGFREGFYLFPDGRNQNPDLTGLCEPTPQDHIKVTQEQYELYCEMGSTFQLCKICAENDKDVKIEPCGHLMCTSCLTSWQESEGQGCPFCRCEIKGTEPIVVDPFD
# Chain of c-Cbl (residues 47-435) (P22681 47-435): as above
# Chain of Cbl-b (Q13191 40-426): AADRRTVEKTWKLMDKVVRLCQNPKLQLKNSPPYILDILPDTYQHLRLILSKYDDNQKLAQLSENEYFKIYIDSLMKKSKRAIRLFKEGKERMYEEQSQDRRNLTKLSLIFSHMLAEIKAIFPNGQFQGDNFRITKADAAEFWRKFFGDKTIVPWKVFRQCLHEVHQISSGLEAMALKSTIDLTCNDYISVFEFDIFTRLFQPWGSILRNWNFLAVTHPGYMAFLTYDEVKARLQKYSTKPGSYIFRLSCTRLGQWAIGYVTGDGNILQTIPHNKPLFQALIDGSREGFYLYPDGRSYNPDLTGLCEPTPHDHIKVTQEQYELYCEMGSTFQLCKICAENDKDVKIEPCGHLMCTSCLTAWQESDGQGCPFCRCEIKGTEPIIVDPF
# Chain of Human Cbl-b (residues 40-426) (Q13191 40-426): as above
SMILES,Fold of selectivity [1] [×],Kd [1] [nM],Kd (c-Cbl (residues 47-435)) [nM],IC50 (c-Cbl) [nM],IC50 (Cbl-b) [nM],(fold-selectivity) Cbl-b and C-Cbl Selectivity (Cbl-b) [x]
"Cn1cnnc1[C@H](c1cccc(N2Cc3c(cc(CNC4(C)CCC4)cc3C(F)F)C2=O)c1)C1CC(F)C1 (stereo partly drawn) [Compound 461, 4-(difluoromethyl)-2-(3-((S)-((1s,3R)-3-fluorocyclobutyl)(4-methyl-4H-1,2,4-triazol-3-yl)methyl)phenyl)-6-(((1-methylcyclobutyl)amino)methyl)isoindolin-1-one]",18,190,3400,3200,360,8.8
CO[C@H]1C[C@](c2cccc(N3Cc4c(cc(CN[C@H](C)C5CCC5)cc4C(F)(F)F)C3=O)c2)(c2nncn2C)C1 [Compound 467],7.6,16,120,86,22,4.0
"CO[C@H]1C[C@](c2cccc(N3Cc4c(cc(CNC5(C)CC(F)(F)C5)cc4C(F)(F)F)C3=O)c2)(c2nncn2C)C1 [Compound 471, 6-(((3,3-difluoro-1-methylcyclobutyl)amino)methyl)-2-(3-((1r,3r)-3-methoxy-1-(4-methyl-4H-1,2,4-triazol-3-yl)cyclobutyl)phenyl)-4-(trifluoromethyl)isoindolin-1-one]",11,8.3,91,36,8.3,4.3
"CO[C@H]1C[C@](c2cccc(N3Cc4c(cc(CNCC5(O)CC5)cc4C(F)(F)F)C3=O)c2)(c2nncn2C)C1 [Compound 473, 6-((((1-hydroxycyclopropyl)methyl)amino)methyl)-2-(3-((1r,3r)-3-methoxy-1-(4-methyl-4H-1,2,4-triazol-3-yl)cyclobutyl)phenyl)-4-(trifluoromethyl)isoindolin-1-one]",11,7.6,85,50,14,3.6
"CO[C@H]1C[C@](c2cccc(N3Cc4c(cc(CNCC5(C)CC5)cc4C(F)(F)F)C3=O)c2)(c2nncn2C)C1 [Compound 474, 2-(3-((1r,3r)-3-methoxy-1-(4-methyl-4H-1,2,4-triazol-3-yl)cyclobutyl)phenyl)-6-((((1-methylcyclopropyl)methyl)amino)methyl)-4-(trifluoromethyl)isoindolin-1-one]",14,4.8,68,51,11,4.8
"CO[C@H]1C[C@](c2cccc(N3Cc4c(cc(CNC5COC5)cc4C(F)(F)F)C3=O)c2)(c2nncn2C)C1 [Compound 476, 2-(3-((1r,3r)-3-methoxy-1-(4-methyl-4H-1,2,4-triazol-3-yl)cyclobutyl)phenyl)-6-((oxetan-3-ylamino)methyl)-4-(trifluoromethyl)isoindolin-1-one]",11,95,1100,570,82,7.1
"CO[C@H]1C[C@](c2cccc(N3Cc4c(cc(CNC5CC5)cc4C(F)(F)F)C3=O)c2)(c2nncn2C)C1 [Compound 477, 6-((cyclopropylamino)methyl)-2-(3-((1r,3r)-3-methoxy-1-(4-methyl-4H-1,2,4-triazol-3-yl)cyclobutyl)phenyl)-4-(trifluoromethyl)isoindolin-1-one]",11,11,130,93,17,5.6
"CO[C@H]1C[C@](c2cccc(N3Cc4c(cc(CN5CC(C)(O)C5)cc4C(F)(F)F)C3=O)c2)(c2nncn2C)C1 [Compound 478, 6-((3-hydroxy-3-methylazetidin-1-yl)methyl)-2-(3-((1r,3r)-3-methoxy-1-(4-methyl-4H-1,2,4-triazol-3-yl)cyclobutyl)phenyl)-4-(trifluoromethyl)isoindolin-1-one]",8.7,120,1100,840,130,6.4
"CO[C@H]1C[C@](c2cccc(N3Cc4c(cc(CN5CCC5)cc4C(F)(F)F)C3=O)c2)(c2nncn2C)C1 [Compound 480, 6-(azetidin-1-ylmethyl)-2-(3-((1r,3r)-3-methoxy-1-(4-methyl-4H-1,2,4-triazol-3-yl)cyclobutyl)phenyl)-4-(trifluoromethyl)isoindolin-1-one]",11,45,490,280,34,7.9
"CO[C@H]1C[C@](c2cccc(N3Cc4c(cc(CNCC(C)(C)F)cc4C(F)(F)F)C3=O)c2)(c2nncn2C)C1 [Compound 483, 6-(((2-fluoro-2-methylpropyl)amino)methyl)-2-(3-((1r,3r)-3-methoxy-1-(4-methyl-4H-1,2,4-triazol-3-yl)cyclobutyl)phenyl)-4-(trifluoromethyl)isoindolin-1-one]",18,4.6,84,58,10,5.8
"CO[C@H]1C[C@](c2cccc(N3Cc4c(cc(CN[C@]5(C)C[C@H](O)C5)cc4C(F)(F)F)C3=O)c2)(c2nncn2C)C1 [Compound 484, 6-((((1s,3S)-3-hydroxy-1-methylcyclobutyl)amino)methyl)-2-(3-((1r,3R)-3-methoxy-1-(4-methyl-4H-1,2,4-triazol-3-yl)cyclobutyl)phenyl)-4-(trifluoromethyl)isoindolin-1-one]",13,13,200,260,26,10

# These reach a lower Kd [1]. Values come first.
Fold of selectivity [1] [×],Kd [1] [nM],Kd (c-Cbl (residues 47-435)) [nM],IC50 (c-Cbl) [nM],IC50 (Cbl-b) [nM],(fold-selectivity) Cbl-b and C-Cbl Selectivity (Cbl-b) [x],SMILES
13,3.6,45,23,8.7,3.3,"CO[C@H]1C[C@](c2cccc(N3Cc4c(cc(CNC5(C)CC5)cc4C(F)(F)F)C3=O)c2)(c2nncn2C)C1 [Compound 475, 2-(3-((1r,3r)-3-methoxy-1-(4-methyl-4H-1,2,4-triazol-3-yl)cyclobutyl)phenyl)-6-(((1-methylcyclopropyl)amino)methyl)-4-(trifluoromethyl)isoindolin-1-one]"
5.2,3.2,17,12,6.5,1.9,"Cn1cnnc1[C@@H](c1cccc(N2Cc3c(cc(CNCC(C)(C)F)cc3C(F)(F)F)C2=O)c1)C1COC1 [Compound 463, (R)-6-(((2-fluoro-2-methylpropyl)amino)methyl)-2-(3-((4-methyl-4H-1,2,4-triazol-3-yl)(oxetan-3-yl)methyl)phenyl)-4-(trifluoromethyl)isoindolin-1-one]"
10,2,21,24,13,1.9,"Cn1cnnc1C(c1cccc(N2Cc3c(cc(CNC4(C)CCC4)cc3C(F)(F)F)C2=O)c1)C1(F)CSC1 (stereo not drawn) [Compound 462, 2-(3-((3-fluorothietan-3-yl)(4-methyl-4H-1,2,4-triazol-3-yl)methyl)phenyl)-6-(((1-methylcyclobutyl)amino)methyl)-4-(trifluoromethyl)isoindolin-1-one]"
15,1.9,30,20,5.3,3.7,"CO[C@H]1C[C@](c2cccc(N3Cc4c(cc(CNCC5CC5(F)F)cc4C(F)(F)F)C3=O)c2)(c2nncn2C)C1 (stereo partly drawn) [Compound 482, 6-((((2,2-difluorocyclopropyl)methyl)amino)methyl)-2-(3-((1r,3r)-3-methoxy-1-(4-methyl-4H-1,2,4-triazol-3-yl)cyclobutyl)phenyl)-4-(trifluoromethyl)isoindolin-1-one]"
18,1.5,27,25,6.2,4.0,"CO[C@H]1C[C@](c2cccc(N3Cc4c(cc(CNCC(C)(C)C)cc4C(F)(F)F)C3=O)c2)(c2nncn2C)C1 [Compound 481, 2-(3-((1r,3r)-3-methoxy-1-(4-methyl-4H-1,2,4-triazol-3-yl)cyclobutyl)phenyl)-6-((neopentylamino)methyl)-4-(trifluoromethyl)isoindolin-1-one]"
2.9,0.35,1.5,4.5,4.4,1.0,"CO[C@H]1C[C@](c2cccc(N3Cc4c(cc(CN[C@@H](C)C5CCC5)cc4C(F)(F)F)C3=O)c2)(c2nncn2C)C1 [Compound 470, 6-((((S)-1-cyclobutylethyl)amino)methyl)-2-(3-((1r,3S)-3-methoxy-1-(4-methyl-4H-1,2,4-triazol-3-yl)cyclobutyl)phenyl)-4-(trifluoromethyl)isoindolin-1-one]"
